Data taken from patent US20090246212A1, “DEVELOPMENT OF METHOD FOR SCREENING FOR DRUG CAPABLE OF IMPROVING PRODUCTION OF REGULATORY T CELLS AND METHOD FOR PRODUCING REGULATORY T CELLS USING IMMUNOSUPPRESSIVE MACROLIDE ANTIBIOTIC” (KYOTO UNIVERSITY, priority 2005, published 2009).

Experiments:
[1] = system: CD45RA^+CD25^+CD4^+ T cells; test: FACS phenotype analysis of the T cell line from CD45RA^+CD25^+CD4^+ T cells cultured with rapamycin; type: cell-based, human
Method: PBMC derived from the subjects, or expanded T cell line were incubated with various antibodies for 30 min at 4° C. in the dark, washed, and analyzed using a BD FACSAria cell sorter and a FACSDiVA software (Becton Dickinson). The antibodies used were perCP-conjugated anti-CD4 mAb, biotin-conjugated anti-CD25 mAb, FITC-conjugated anti-CD45RA mAb, PE-conjugated anti-CD45RB mAb, anti-CD45RO mAb, anti-CD62L mAb, anti-CD38 mAb, anti-GITR mAb, and anti-TNFRII mAb. For intracellular staining with CTLA-4, the cells were subjected to cell surface staining, fixation, and permeabilization with Cytofix/Cytoperm solution (Becton Dickinson), and then intracellularly stained with PE-conjugated anti-CTLA-4.
CD45RA^+CD25^+CD4^+ T cells or CD45RA^+CD25^−CD4^+ T cells in human peripheral blood separated in the same manner as Example 1 (5×10̂4 cells/well) were stimulated with anti-human CD3 and CD28 conjugate beads in a ratio of 4 beads per cell in a 96-well round-bottomed culture plate containing 200 μl per well of a proliferation medium (AlyS505N (produced by Cell Science & Technology Institute) supplemented with 2% human AB serum) in the presence of human IL-2 (1000 U/ml, produced by Cell Science & Technology Institute). Rapamycin (20 nM, produced by Sigma) was added to the medium 0 or 40 days after the start of cultivation. Every 3 to 4 days, half of the medium was replaced with a fresh proliferation medium containing IL-2. If necessary, the cells were separated and repeatedly re-stimulated with anti-CD3/CD28 antibody conjugate beads every 10 to 14 days. Fifty days after the start of cultivation, the cells were collected and used for FACS analysis.
Expanded T cell lines were incubated with various antibodies for 30 minutes at 4° C. in the dark, washed, and analyzed using BD FACSAria cell sorter and FACSDiVA software (Becton Dickinson). The antibodies and staining conditions used were the same as Example 1.

[2] = used alone or in combination with picibanil; cited from earlier work
mouse CD4^+ T = conditions: cited from earlier work
[3] = system: CD45RA^+CD25^+CD4^+ T cells; test: Expansion culture of CD45RA^+CD25^+CD4^+ T cells with anti-CD3/CD28 beads and IL-2, rapamycin added; type: cell-based, human; conditions: for increase of cell number in the culture product: 50 days after start
Method: Venous blood was obtained from healthy volunteers (human). Peripheral blood mononuclear cell (PBMC) was isolated by Ficoll-Hypaque (Amersham Biosciences-Uppsala) density gradient centrifugation. The cells were stained with allophycocyanin (APC)-conjugated anti-CD4 monoclonal antibody (mAb), phycoerythrin (PE)-conjugated anti-CD25 mAb, and fluorescein isothiocyanate (FITC)-conjugated anti-CD45RA mAb for 30 min at 4° C. in the dark, after which the following six different cell fractions were isolated using a BD FACSAria cell sorter (Becton Dickinson)(see FIG. 1A).
(§1) CD45RA^+CD25^+CD4^+ T cells or CD45RA^+CD25^−CD4^+ T cells (5×10̂4 cells/well) separated as described above were stimulated with anti-human CD3 and CD28 conjugate beads in a ratio of 4 beads per cell in a 96-well round-bottomed culture plate containing 200 μl per well of a proliferation medium (AlyS505N (produced by Cell Science & Technology Institute) supplemented with 2% human AB serum) in the presence of human IL-2 (1000 U/ml, produced by Cell Science & Technology Institute). Rapamycin (20 nM, produced by Sigma) was added as appropriate. Every 3 to 4 days, half of the medium was replaced with a fresh proliferation medium containing IL-2. If necessary, the cells were separated and repeatedly re-stimulated with anti-CD3/CD28 antibody conjugated beads every 10 to 14 days. Two days before functional assay, the anti-CD3/CD28 antibody conjugated beads were removed magnetically, and the cells were cultured along with 100 U/ml IL-2 in the absence of rapamycin. After 3 times of washing, the cells were used for functional assay.

[4] = system: CD45RA^+CD25^−CD4^+ T cell line; test: Suppression assay ([^3H] thymidine uptake) of the rapamycin-cultured CD45RA^+CD25^−CD4^+ T cell line; type: cell-based, human; conditions: then 2 days without rapamycin
Method: as §1, with “Two days before functional assay, the anti-CD3/CD28 antibody conjugated beads were removed magnetically, and the cells were cultured along with 100 U/ml IL-2 in the absence of rapamycin. After 3 times of washing, the cells were used for functional assay.” left out
The indicated number of CD45RA^+CD25^+CD4^+ T cells just isolated from human peripheral blood, expanded CD45RA^+CD25^+CD4^+ T cell lines, or expanded CD45RA^+CD25^−CD4^+ T cell line, alone or along with self responder CD4^+ T cells (5×10̂4 cells/well), were stimulated with radiated (40 Gy) allogenic PBMC (1×10̂5 cells/well) in a round-bottomed 96-well microplate containing a proliferation medium. […] Subsequently, the cells were recovered, and [^3H] thymidine uptake was measured using 1450 Microbeta TriLux (Wallac).

[5] = rapamycin 20 nM from day 40, collected day 50
[6] = stimulated in the presence of rapamycin

## CO[C@H]1C[C@@H]2CC[C@@H](C)[C@@](O)(O2)C(=O)C(=O)N2CCCC[C@H]2C(=O)O[C@H]([C@H](C)C[C@@H]2CC[C@@H](O)[C@H](OC)C2)CC(=O)[C@H](C)/C=C(\C)[C@@H](O)[C@@H](OC)C(=O)[C@H](C)C[C@H](C)/C=C/C=C/C=C/1C [rapamycin]
[1]; rapamycin 20 nM from day 0, collected day 50
  CD45RO phenotype of the T cell line: negative
[1]; [5]
  CD25 expression relative to CD45RA^−CD25^high+CD4^+ T cells in peripheral blood: about 0.8 times
  CD45RA expression relative to CD45RA^+CD25^+CD4^+ T cells in peripheral blood: about ⅙
  CD45RB expression relative to CD45RA^−CD25^high+CD4^+ T cells in peripheral blood: about 4 times
  CD45RO expression relative to CD45RA^−CD25^high+CD4^+ T cells in peripheral blood: about 1/50
  CD62L expression relative to CD45RA^−CD25^high+CD4^+ T cells in peripheral blood: about ⅙
  GITR / CTLA4 phenotype of the T cell line: GITR^+CTLA4^+
[2]
  antitumor activity: possess antitumor activity
Mouse CD4^+ T; mouse CD4^+ T stimulated with an antigen in the presence of rapamycin
  CD4^+CD25^+FOXP3^+ regulatory T cells: expanded selectively
Mouse CD4^+ T; [6]
  expression of FOXP3 in CD4^+CD25^− T cells: did not enhance
  proliferation of isolated CD4^+CD25^+ T cells: proliferated vigorously
  suppressive function of the T cell population produced from CD4^+CD25^+ T cells: having suppressive function
  suppressive function of the T cell population produced from CD4^+CD25^− T cells: without suppressive function
[3]; rapamycin 20 nM added 7 days after start
  increase of cell number in the culture product: about 60 times
[3]; rapamycin 20 nM added 7 days or 39 days after start of cultivation
  proliferation of the CD45RA^+CD25^+CD4^+ T cell line: suppressed after the time of addition
[3]; rapamycin 20 nM added 39 days after start
  increase of cell number in the culture product: about 700 times
[3]; rapamycin 20 nM added from the start of cultivation
  proliferation of CD45RA^+CD25^+CD4^+ T cells: suppressed
[3]; rapamycin 20 nM added from the start of cultivation (day 0)
  increase of cell number in the culture product: about 20 times
[4]; rapamycin added day 19, about 35 days after start
  T cell line's effect on proliferation of CD4^+ T cells in response to alloantigen-presenting cells: strongly suppressed
[4]; rapamycin from day 0, about 35 days culture
  T cell line's effect on proliferation of CD4^+ T cells in response to alloantigen-presenting cells: strongly suppressed
